From patent publication US10449162B2, “Delivery of drug nanoparticles and methods of use thereof” (DFB Soria, LLC, priority 2015, dated 2019)
Where two headings read alike, the source gives them in different places.

What was measured:
[1] = Bulk density (not tapped); assay type: physicochemical; settings: lots used in the formulas
Method: (§1) As used herein, the “specific surface area (SSA)” is the total surface area of the taxane nanoparticle per unit of taxane mass as measured by the Brunauer-Emmett-Teller (“BET”) isotherm by the following method: a known mass between 200 and 300 mg of the analyte is added to a 30 mL sample tube. […] The automated test is then carried out using the BETWIN® software package and the surface area of each sample is subsequently calculated. The bulk density measurement can be conducted by pouring the taxane nanoparticles into a graduated cylinder without tapping at room temperature, measuring the mass and volume, and calculating the bulk density.

[2] = Particle size of paclitaxel nanoparticles lots (ACCUSIZER 780); assay type: physicochemical; settings: number-weighted differential distribution; nanoparticle API lot
Method: Max. Concentration: 9000 particles/mL, No. containers: 1, Sensor Range: Summation, Lower Detection Limit: 0.5 μm, Flow Rate: 30 mL/min, No. Analysis pulls: 4, Time between pulls: 1 sec, Pull volume: 10 mL, Tare Volume: 1 mL, Prime volume: 1 mL, Include First Pull: Not Selected.
Vortexed for 5-10 minutes and sonicated in a water batch for 1 minute.
Filled a plastic bottle with filtered (0.22 μm) 0.1% w/w SDS solution and analyzed the Background.

[3] = Specific surface area (BET isotherm); assay type: physicochemical; settings: lots used in the formulas
Method: as §1

[4] = Observation of paclitaxel nanoparticle crystals in various substances and solutions (light microscopy); assay type: physicochemical
[5] = methanol/water 15/85 (v/v), 37° C., pH 7, USP Apparatus II 75 rpm, PCT/US16/35993, cited from earlier work
[6] = in Aluminum sulfate 0.1-0.2% in water, 7 days, RT
[7] = in Ammonium lauryl sulfate 2% in water, 3 days, RT
[8] = in Benzalkonium chloride (50%) 2% in water, 7 days & 21 days, RT
[9] = in CARBOPOL ULTREZ 10 (with Ammonium hydroxide as neutralizer) 0.5% in water, 8 days & 21 days, RT
[10] = in Castor Oil 100%, 24 hrs & 9 days, RT
[11] = in Dimethicone, 1000 cSt 100%, 24 hrs & 6 days, RT
[12] = in FOMBLIN HC04 100%, 4, 7 & 13 days, RT
[13] = in Hydroxyethyl cellulose 1% in water, 7 days, RT
[14] = in Hydroxypropyl methylcellulose 1% in water, 3 days, RT
[15] = in Lecithin 1% in water, 24 hrs, RT
[16] = in Light Mineral Oil NF 100%, 3 days, RT & 40 C.
[17] = in Magnesium nitrate 5% in water, 3 days, RT
[18] = in Mannitol 5% in water, 7 days, RT
[19] = in Mineral Oil USP (heavy) 100%, 3 days, RT & 40 C
[20] = in PEG 400 10% in water, 22 days, RT & 60 C.
[21] = in Poloxamer 188 2% in water, 7 days, RT
[22] = in Poloxamer 407 2% in water, 5 & 7 days, RT
[23] = in Polyoxyl 40 Hydrogenated Castor Oil (KOLLIPHOR RH40) 1% in water, 6 days, RT
[24] = in Polysorbate 80 0.5% in Saline, 7 days, RT & 60 C.
[25] = in Polysorbate 80 0.5% in water, 22 days, RT & 60 C.
[26] = in Povidone 1% in water, 7 days & 21 days, RT
[27] = in Proline 3% in water, 7 days, RT
[28] = in Purified Water 100%, 5 days, RT & 60 C.
[29] = in ST-Cyclomethicone 5 NF 100%, 24 hrs & 13 days, RT
[30] = in Saline 0.9% NaCl in water, 7 days, RT & 60 C.
[31] = in Sodium lauryl sulfate 2% in water, 7 days, RT
[32] = in Sodium phosphate monobasic 0.75% in water, 7 days, RT
[33] = in Sorbitol 5% in water, 7 days, RT
[34] = in Vitamin E TPGS 0.5% in water, 6 days, RT
[35] = in Zinc acetate […] in water, 7 days, RT

In the case of CC(=O)O[C@H]1C(=O)[C@@]2(C)[C@H]([C@H](OC(=O)c3ccccc3)[C@]3(O)C[C@H](OC(=O)[C@H](O)[C@@H](NC(=O)c4ccccc4)c4ccccc4)C(C)=C1C3(C)C)[C@]1(OC(C)=O)CO[C@@H]1C[C@@H]2O [Paclitaxel nanoparticles lot used in formulas listed in Tabl] [listing 1 of 2 here], the “Bulk density (not-tapped)” value [1] is reported as 0.05 g/mL, the “Particle size, Mean” value [2] is reported as 0.861 μm and the “Particle size, Median” value [2] is reported as 0.710 μm. For the same compound, the “Particle size, Mode” value [2] was 0.572 μm and the “Specific surface area (SSA)” value [3] was 41.24 m^2/g.

With CC(=O)O[C@H]1C(=O)[C@@]2(C)[C@H]([C@H](OC(=O)c3ccccc3)[C@]3(O)C[C@H](OC(=O)[C@H](O)[C@@H](NC(=O)c4ccccc4)c4ccccc4)C(C)=C1C3(C)C)[C@]1(OC(C)=O)CO[C@@H]1C[C@@H]2O [Paclitaxel nanoparticles lot used in formulas listed in Tabl] [listing 2 of 2 here] the “Bulk density (not-tapped)” value [1] was 0.09 g/mL, the “Particle size, Mean” value [2] was 0.83 μm and the “Specific surface area (SSA)” value [3] was 26.72 m^2/g.

With CC(=O)O[C@H]1C(=O)[C@@]2(C)[C@H]([C@H](OC(=O)c3ccccc3)[C@]3(O)C[C@H](OC(=O)[C@H](O)[C@@H](NC(=O)c4ccccc4)c4ccccc4)C(C)=C1C3(C)C)[C@]1(OC(C)=O)CO[C@@H]1C[C@@H]2O [Paclitaxel nanoparticles, paclitaxel] the “Crystal size (light microscopy)” value [4, 6] was greater than 5 μm, the “Needle shaped crystals observed? (visual observation by light microscopy)” value (“Needle shaped crystals observed?” for short) [4, 6] was “Yes” and the “Crystal size (light microscopy)” value [4, 7] was greater than 5 μm. For the same compound, the “Needle shaped crystals observed?” value [4, 7] was “Yes”, the “Crystal size (light microscopy)” value [4, 8] was less than 5 μm and the “Needle shaped crystals observed?” value [4, 8] was “No”. For the same compound, the “Crystal size (light microscopy)” value [4, 9] was less than 5 μm, the “Needle shaped crystals observed?” value [4, 9] was “No” and the “Crystal size (light microscopy)” value [4, 10] was less than 5 μm. The “Needle shaped crystals observed?” value [4, 10] was “No”, the “Crystal size (light microscopy)” value [4, 11] was less than 5 μm and the “Needle shaped crystals observed?” value [4, 11] was “No”. For the same compound, the “Crystal size (light microscopy)” value [4, 12] was less than 5 μm, the “Needle shaped crystals observed?” value [4, 12] was “No” and the “Crystal size (light microscopy)” value [4, 13] was greater than 5 μm. For the same compound, the “Needle shaped crystals observed?” value [4, 13] was “Yes”, the “Crystal size (light microscopy)” value [4, 14] was greater than 5 μm and the “Needle shaped crystals observed?” value [4, 14] was “Yes”. The “Crystal size (light microscopy)” value [4, 15] was greater than 10 μm, the “Needle shaped crystals observed?” value [4, 15] was “Yes” and the “Crystal size (light microscopy)” value [4, 16] was less than 5 μm. For the same compound, the “Needle shaped crystals observed?” value [4, 16] was “No”, the “Crystal size (light microscopy)” value [4, 17] was greater than 5 μm and the “Needle shaped crystals observed?” value [4, 17] was “Yes”. For the same compound, the “Crystal size (light microscopy)” value [4, 18] was greater than 5 μm, the “Needle shaped crystals observed?” value [4, 18] was “Yes” and the “Crystal size (light microscopy)” value [4, 19] was less than 5 μm. The “Needle shaped crystals observed?” value [4, 19] was “No”, the “Crystal size (light microscopy)” value [4, 20] was greater than 5 μm and the “Needle shaped crystals observed?” value [4, 20] was “Yes”. For the same compound, the “Crystal size (light microscopy)” value [4, 21] was greater than 5 μm, the “Needle shaped crystals observed?” value [4, 21] was “Yes” and the “Crystal size (light microscopy)” value [4, 22] was less than 5 μm. For the same compound, the “Needle shaped crystals observed?” value [4, 22] was “No”, the “Crystal size (light microscopy)” value [4, 23] was less than 5 μm and the “Needle shaped crystals observed?” value [4, 23] was “Yes”. For the same compound, the “Crystal size (light microscopy)” value [4, 24] was greater than 5 μm, the “Needle shaped crystals observed?” value [4, 24] was “Yes” and the “Crystal size (light microscopy)” value [4, 25] was less than 5 μm. The “Needle shaped crystals observed?” value [4, 25] was “Yes”, the “Crystal size (light microscopy)” value [4, 26] was less than 5 μm and the “Needle shaped crystals observed?” value [4, 26] was “Yes”. For the same compound, the “Crystal size (light microscopy)” value [4, 27] was greater than 5 μm, the “Needle shaped crystals observed?” value [4, 27] was “Yes” and the “Crystal size (light microscopy)” value [4, 28] was greater than 5 μm. For the same compound, the “Needle shaped crystals observed?” value [4, 28] was “Yes”, the “Crystal size (light microscopy)” value [4, 29] was less than 5 μm and the “Needle shaped crystals observed?” value [4, 29] was “No”. The “Crystal size (light microscopy)” value [4, 30] was greater than 10 μm, the “Needle shaped crystals observed?” value [4, 30] was “Yes” and the “Crystal size (light microscopy)” value [4, 31] was greater than 5 μm. For the same compound, the “Needle shaped crystals observed?” value [4, 31] was “Yes”, the “Crystal size (light microscopy)” value [4, 32] was greater than 5 μm and the “Needle shaped crystals observed?” value [4, 32] was “Yes”. The “Crystal size (light microscopy)” value [4, 33] was greater than 5 μm, the “Needle shaped crystals observed?” value [4, 33] was “Yes” and the “Crystal size (light microscopy)” value [4, 34] was less than 5 μm. For the same compound, the “Needle shaped crystals observed?” value [4, 34] was “Yes”, the “Crystal size (light microscopy)” value [4, 35] was greater than 5 μm and the “Needle shaped crystals observed?” value [4, 35] was “Yes”. The Crystal growth ([4]; in any of the hydrophobic carriers) was “did not grow” and the Crystal growth ([4]; in aqueous solutions of benzalkonium chloride, CARBOPOL ULTREZ 10, or poloxamer 407) was “did not grow”.

For CC(=O)O[C@@]12CO[C@@H]1C[C@H](O)[C@@]1(C)C(=O)[C@H](O)C3=C(C)[C@@H](OC(=O)[C@H](O)[C@@H](NC(=O)OC(C)(C)C)c4ccccc4)C[C@@](O)([C@@H](OC(=O)c4ccccc4)[C@H]21)C3(C)C [docetaxel nanoparticles produced by milling] [reference compound], the “Dissolution rate, % dissolved in 30 minutes” value ([5]; listed as docetaxel nanoparticles made by milling) is listed as 9%.

For CC(=O)O[C@@]12CO[C@@H]1C[C@H](O)[C@@]1(C)C(=O)[C@H](O)C3=C(C)[C@@H](OC(=O)[C@H](O)[C@@H](NC(=O)OC(C)(C)C)c4ccccc4)C[C@@](O)([C@@H](OC(=O)c4ccccc4)[C@H]21)C3(C)C [docetaxel nanoparticles, docetaxel], the “Dissolution rate, % dissolved in 30 minutes” value [5] is given as 27%.
